Measurements taken from PMC2852148 (Biochemistry, 2010).
Several values for one entry are separate records, joined by “and”; a condition that tells them apart may be missing. Equal entries are not always repeated. Entries after “also recorded” stand apart in the source; their conditions may differ.

Assays:
[1] = biological target: T1, RDL receptors (Drosophila melanogaster, UniProt P25123); test: Two-electrode voltage clamp of RDL receptors expressed in Xenopus oocytes; format: cell-based; settings: for pEC50: -60 mV, N/R = no response; for pEC50 / nH (Hill coefficient) / Imax/Imax(GABA): means ± SEM; for EC50: EC50, RDL receptors in Xenopus oocytes; for Imax/Imax(GABA): maximal current relative to maximal GABA-evoked response
T1 sequence (P25123 45-606): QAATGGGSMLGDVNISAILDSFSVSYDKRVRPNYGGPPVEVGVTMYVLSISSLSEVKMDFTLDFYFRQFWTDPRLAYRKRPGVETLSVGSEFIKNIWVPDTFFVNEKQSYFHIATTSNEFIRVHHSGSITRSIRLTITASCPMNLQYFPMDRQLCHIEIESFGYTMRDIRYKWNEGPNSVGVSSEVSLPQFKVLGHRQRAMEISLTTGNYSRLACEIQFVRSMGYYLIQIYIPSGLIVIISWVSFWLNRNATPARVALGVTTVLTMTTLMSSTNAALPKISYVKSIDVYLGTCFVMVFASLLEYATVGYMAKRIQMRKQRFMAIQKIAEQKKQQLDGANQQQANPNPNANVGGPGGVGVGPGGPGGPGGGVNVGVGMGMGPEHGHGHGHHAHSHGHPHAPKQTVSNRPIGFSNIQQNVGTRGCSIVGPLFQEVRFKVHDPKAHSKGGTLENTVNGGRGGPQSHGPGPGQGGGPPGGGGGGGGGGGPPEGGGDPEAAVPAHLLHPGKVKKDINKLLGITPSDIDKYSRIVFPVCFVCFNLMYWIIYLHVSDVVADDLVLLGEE

[2] = biological target: T1, RDL receptors; settings: background statement; cited from earlier work
[3] = RDL receptors in Xenopus oocytes
[4] = applied at concentrations up to 10 mM

Row | Compound | pEC50 [1, 3] | EC50 ([1]; Table 1) | nH (Hill coefficient) [1, 3] | Imax/Imax(GABA) [1] | also measured
1 | NCCc1ccc(O)cc1 [tyramine] | N/R |  |  |  | activation of RDL receptors (in words) [1, 3]: inactive; activation of RDL receptors (in words) [1, 4]: failed to activate
2 | CN1CCc2cc3c(cc2[C@H]1[C@@H]1OC(=O)c2c1ccc1c2OCO1)OCO3 [bicuculline] |  |  |  |  | inhibition of homomeric RDL receptors (in words) [2]: not inhibited
3 | picrotoxin |  |  |  |  | inhibition of homomeric RDL receptors (in words) [2]: inhibited
4 | NCC=CC(=O)O [TACA, 4-amino-2-butenoic acid] |  | 36.7 µM | 1.8 ± 0.2 | 1.0 ± 0.02 | 
5 | NCCCP(=O)(O)O [3-APP, 3-aminopropylphosphonic acid] | N/R |  |  |  | activation of RDL receptors (in words) [1, 3]: no activating effect; also recorded: inactive
6 | NCCCC(=O)O [GABA, γ-aminobutyric acid] |  |  | 1.8 ± 0.2 |  | 
7 | O=C(O)C1=CCNCC1 [isoguvacine] |  | 64.9 µM | 1.9 ± 0.2 | 0.97 ± 0.03 | 
8 | NCc1cc(=O)[nH]o1 [muscimol] |  | 9.04 µM | 2.2 ± 0.6 | 0.87 ± 0.03 | agonist type at RDL receptors [1, 3]: full agonist
9 | Oc1noc2c1CCNC2 [THIP, 4,5,6,7-tetrahydroisoxazolo[5,4-c]pyridin-3-ol] |  | 226 µM | 2.4 ± 1.0 | 0.57 ± 0.06 | EC50 [1]: 220 µM; agonist type at RDL receptors [1, 3]: partial agonist
10 | NCC(=O)O [glycine] | N/R |  |  |  | activation of RDL receptors (in words) [1, 3]: inactive; activation of RDL receptors (in words) [1, 4]: failed to activate
11 | NCCCCO [4-AB, 4-amino-1-butanol] | N/R |  |  |  | activation of RDL receptors (in words) [1, 3]: inactive; activation of RDL receptors (in words) [1, 4]: failed to activate
12 | Nc1ccc(C(=O)O)cc1 [PABA, p-aminobenzoic acid] | N/R |  |  |  | activation of RDL receptors (in words) [1, 4]: failed to activate
13 | NCCS(=O)(=O)O [taurine] |  | > 10000 µM |  |  | EC50 [1]: > 10000 µM
14 | NCCC(=O)O [β-alanine] |  | 807 µM | 2.0 ± 0.3 | 1.0 ± 0.03 | EC50 [1]: 800 µM and ~1000 µM
15 | NCCCCC(=O)O [5-AV, 5-aminovaleric acid] |  | 1120 µM | 1.0 ± 0.3 | 0.85 ± 0.1 | EC50 [1]: 1100 µM and ~1000 µM
